In the experiment the test system is Mycobacterium tuberculosis. In words: Antitubercular activity against Mycobacterium tuberculosis at 12.5 ug/mL by TAACF method. In kind it is functional.

The inhibition is the relative decrease from the control value, in per cent. A lower inhibition goes with little suppression.

In the case of `CC1=CCC[C@H]2[C@](C)(CCC3=CC(=O)OC3O)[C@@H](C)CC[C@]12C` (stereo partly specified), 12.5 µg/mL produced 85% inhibition.

For the origin of these results see ChEMBL document CHEMBL1155639, “Synthesis of 16,18-dihydroxycleroda-3,13Z-dien-16,15-olide, (+)-16-hydroxycleroda-3,13Z-dien-16,15-olide, and (-)-hydroxyhalima-5(10),13-dien-16,15-olide from (+)-hardwickiic acid” (2000).
